TGI data for twelve molecules are collected here from PubChem BioAssay (NCI).

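96-well plates; 48 h exposure; 5 concentrations. Endpoints by linear interpolation between flanking doses. Not reached: highest tested concentration assigned. TGI denotes the concentration required for complete inhibition of growth.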

Among the test systems are CCRF-CEM leukemia; EKVX NSCLC; HCC-2998 colon; HCT-116 colon; K-562 leukemia; NCI-H460 lung; OVCAR-8 ovarian; RPMI-8226 leukemia; SN12C renal; U251 CNS; NCI-H522 lung; SK-MEL-2 melanoma; UO-31 renal.
What all share (test): NCI anticancer screen, dose series, 48 h

With `CSC(=Nc1ccc([N+](=O)[O-])cc1C#N)NC(=O)c1ccccc1`, the TGI in the test on CCRF-CEM leukemia, in the test with EKVX NSCLC, in the test with HCC-2998 colon, in the test on HCT-116 colon, in the test on K-562 leukemia and with NCI-H460 lung was greater than 100 µM throughout. Further, the TGI with OVCAR-8 ovarian, in the test on RPMI-8226 leukemia, with SN12C renal and with U251 CNS was greater than 100 µM throughout.
Regarding `O=C1c2cccnc2S(=O)(=O)N1c1ccc(Br)cc1`, the TGI in the test with CCRF-CEM leukemia, in the test with EKVX NSCLC, in the test on HCT-116 colon, in the test on K-562 leukemia, in the test on NCI-H522 lung and in the test with OVCAR-8 ovarian was greater than 100 µM each time. For the same molecule, the TGI in the test on RPMI-8226 leukemia, with SK-MEL-2 melanoma, with SN12C renal, in the test with U251 CNS and in the test on UO-31 renal was greater than 100 µM each time.
As to `NC(=O)N/N=C(\Cc1cc(=O)oc2cc(O)ccc12)C(=O)Nc1ccccc1C(N)=O`, the TGI with CCRF-CEM leukemia, with EKVX NSCLC, in the test on HCC-2998 colon, with HCT-116 colon, in the test on NCI-H460 lung and in the test on NCI-H522 lung was greater than 100 µM each time. The TGI with OVCAR-8 ovarian, with SK-MEL-2 melanoma, in the test on SN12C renal, with U251 CNS and with UO-31 renal was greater than 100 µM in each case.
As for `Cc1cnoc1/N=C1\C=C(Nc2oncc2C)C(=O)c2ccccc21`, the TGI with CCRF-CEM leukemia, with EKVX NSCLC, in the test on HCC-2998 colon, in the test on HCT-116 colon, in the test with K-562 leukemia and in the test with NCI-H460 lung was greater than 100 µM each time. Moreover, the TGI with OVCAR-8 ovarian, with RPMI-8226 leukemia, in the test on SK-MEL-2 melanoma, in the test on SN12C renal, with U251 CNS and with UO-31 renal was greater than 100 µM each time.
For the molecule `Cc1cccc(C)c1NC(=S)N/C=C(\C#N)C(N)=O`, the TGI with CCRF-CEM leukemia, with EKVX NSCLC, in the test with HCT-116 colon, in the test on K-562 leukemia, in the test on NCI-H460 lung and in the test with NCI-H522 lung was greater than 100 µM each time. Further, the TGI with OVCAR-8 ovarian, in the test with RPMI-8226 leukemia, in the test with SK-MEL-2 melanoma, with SN12C renal, in the test with U251 CNS and with UO-31 renal was greater than 100 µM throughout.
Take `COP(=O)(OC)[C@@](O)(c1ccccc1)[C@@H](O)[C@H](O)c1ccccc1`: the TGI in the test on CCRF-CEM leukemia was 41.6 µM; with EKVX NSCLC, greater than 100 µM; in the test on HCT-116 colon, greater than 100 µM; with K-562 leukemia, greater than 100 µM; with NCI-H460 lung, greater than 100 µM; with NCI-H522 lung, greater than 100 µM. In addition, the TGI with OVCAR-8 ovarian, with SK-MEL-2 melanoma, in the test with SN12C renal, with U251 CNS and in the test on UO-31 renal was greater than 100 µM throughout.
On to `C[C@]12CC[C@H]3[C@@H](CC=C4C[C@@H](N5CCCC5)CC[C@@]43C)[C@@H]1C/C(=C\c1ccc([N+](=O)[O-])cc1)[C@@H]2O`, for which the TGI with CCRF-CEM leukemia is 14.1 µM; with HCT-116 colon, 29.8 µM; in the test on NCI-H460 lung it was greater than 100 µM; in the test on NCI-H522 lung, 32 µM; in the test on RPMI-8226 leukemia, 38.5 µM; with SN12C renal it was 27.5 µM. Also, the TGI worked out at 25.2 µM with U251 CNS and 28.4 µM with UO-31 renal.
In the case of `CC(C)NC1CCCCC2c3ccccc3C12O` (stereo unspecified), the TGI in the test with CCRF-CEM leukemia, in the test on EKVX NSCLC, in the test on HCT-116 colon, in the test with K-562 leukemia, in the test with NCI-H460 lung and in the test with NCI-H522 lung was greater than 100 µM each time. Further, the TGI in the test with OVCAR-8 ovarian, in the test on RPMI-8226 leukemia, in the test on SK-MEL-2 melanoma, in the test with SN12C renal, in the test with U251 CNS and in the test with UO-31 renal was greater than 100 µM throughout.
On to `O=C(O)CSC1=NCCN1`, for which the TGI in the test on CCRF-CEM leukemia, in the test on EKVX NSCLC, in the test with HCT-116 colon, with K-562 leukemia, in the test with NCI-H460 lung and with NCI-H522 lung was greater than 100 µM throughout. Besides, the TGI in the test on OVCAR-8 ovarian, in the test with RPMI-8226 leukemia, in the test with SK-MEL-2 melanoma, with SN12C renal, in the test with U251 CNS and in the test with UO-31 renal was greater than 100 µM each time.
Regarding `COC(=O)[C@H](Cc1ccccc1)NC(=O)N(CCN(CCC#N)C(=O)N[C@H](C(=O)OC)C(C)C)c1ccccc1`, the TGI in the test on CCRF-CEM leukemia, with EKVX NSCLC, in the test with HCC-2998 colon, in the test on HCT-116 colon, in the test on NCI-H522 lung and in the test on OVCAR-8 ovarian was greater than 100 µM in each case. Further, the TGI in the test on RPMI-8226 leukemia, in the test with SK-MEL-2 melanoma, in the test with SN12C renal, with U251 CNS and in the test on UO-31 renal was greater than 100 µM in each case.
Regarding `COc1cc2c(c3nc4ccccc4nc13)-c1ccc(SC)c(=O)cc1[C@@H](NC(C)=O)CC2`, the TGI was greater than 100 µM in the test on CCRF-CEM leukemia; 0.795 µM in the test with EKVX NSCLC; greater than 100 µM in the test on HCT-116 colon; greater than 100 µM with K-562 leukemia; greater than 100 µM in the test with NCI-H460 lung; 0.151 µM with NCI-H522 lung. Also, the TGI with RPMI-8226 leukemia, with SK-MEL-2 melanoma, with SN12C renal, with U251 CNS and in the test with UO-31 renal was greater than 100 µM throughout.
Consider `O=C(CN1CCCCC1)c1ccc2[nH]c(=O)oc2c1`, for which the TGI with CCRF-CEM leukemia, in the test with EKVX NSCLC, in the test with HCT-116 colon, with K-562 leukemia, with NCI-H460 lung and with OVCAR-8 ovarian was greater than 100 µM in each case. Further, the TGI in the test with RPMI-8226 leukemia, with SK-MEL-2 melanoma, with SN12C renal and in the test on U251 CNS was greater than 100 µM throughout.
